The text below walks through data of US20200031785A1, “METHODS FOR TREATING CHRONIC PAIN AND OPIOID DEPENDENCE USING ADENYLYL CYCLASE INHIBITORS” (Purdue Research Foundation, priority 2017, published 2020).

What all share (type): cell-based
In one experiment the target is T1, hAC2 (Homo sapiens, UniProt Q08462).
T1 construct: expressed in transfected cells
As to the kind of experiment: Cyclic AMP accumulation in stable HEK-AC2 cells, stimulated with 100 nM PMA. Conditions: HEK-AC2 cells, 10 μM; (−) = negative inhibition (potentiated response). How it is done:
(§1) Cyclic AMP accumulation was measured as previously described (Brust, et al., J. Pharmacol. Exp. Ther. 352, 480-493(2015)). Briefly, cryopreserved cells were thawed, resuspended in optiMEM (Life Technologies), and plated in white, flat bottom, low-volume, tissue culture-treated 384 well plates (PerkinElmer, Shelton, Conn.). Plates with cells were incubated in a 37° C. humidified incubator for 1 h. Inhibitors were added and plates were incubated at room temperature for 30 min followed by the addition of AC stimulants in the presence of 500 μM IBMX. Cells were incubated at room temperature for 1 h and cAMP accumulation was measured using Cisbio's cAMP kit (Cisbio Bioassays, Bedford, Mass.) according to the manufacturer's instructions.

In a further experiment the target is T2, hAC1 (Homo sapiens, UniProt Q08828).
T2 construct: expressed in transfected cells
Description: Cyclic AMP accumulation in HEK cells stably expressing AC1, stimulated with A23187 (HTRF). Conditions: HEK-AC1 cells; for inhibition at 30 µM: HEK293; for IC50: read-out: HEK-AC1 IC50. As to the method:
The development and mechanistic characterization of AC1-selective small molecule inhibitors is believed to provide novel non-opioid weapons in the war on chronic pain. We identified our initial hits via screening 10,000 selected compounds from the Life Chemicals collection. The screen was carried out using HEK cells stably expressing AC1 (HEK-AC1) and cyclic AMP accumulation was stimulated using the Ca^2+ ionophore, A23187 to selectively activate AC1. Compounds with potential chemical liabilities and PAINs were removed from further evaluation (Baell and Holloway, J. Med. Chem. 2010, 53, 2719-2740).
(§2) Fresh powders of several robust inhibitors (>90% inhibition) were evaluated in multiple confirmation assays assessing the dose response relationship for inhibiting AC1 and AC8 activity. Confirmation assays used A23817 to selectively stimulate recombinant AC1 or AC8 in the HEK cell background (Cumbay and Watts (2001), J. Pharmacol Exp Ther 297:1201-1399). This approach takes advantage of one unique regulatory property of AC1 for the development of selective inhibitors. Both AC1 and AC8 are robustly activated by Ca^2+/CaM under a variety of conditions, whereas the effects of Ca^2+/CaM on AC3 are modest and conditional requiring activation by G proteins. Previous studies have identified unique Ca^2+/CaM binding domains as one possible site of interaction to achieve AC1 (vs. AC8) selectivity (Masada et al., 2012, Biochemistry 51:7917-7929).
(§3) The primary technology we employed to measure cAMP accumulation was a homogenous time-resolved fluorescence (HTRF) assay, the same technology utilized in the primary screen. […] This could be due to either 1) the chemical scaffolds are exquisitely selective toward the AC family of enzymes or 2) the library has not been screened against a sufficient number of targets. The answer is likely a combination of the two; nonetheless, the lack of biological data to date bodes well for these series and any potential off-target promiscuity.
(§4) Human embryonic kidney (HEK) cells stably expressing AC1, AC8, or AC1 with the MOR were cultured in Dulbecco's Modified Eagle Medium (Life Technologies, Grand Island, N.Y.) supplemented with 5% bovine calf serum (Hyclone, Logan, Utah), 5% fetal clone I (Hyclone), Antibiotic-Antimycotic (Life Technologies), and G418 (Invivogen, San Diego, Calif.) (HEK-AC1), or hygromycin B (Fisher Scientific, Pittsburgh, Pa.) (HEK-AC8), or G418 and puromycin (Sigma-Aldrich) (HEK-AC1/MOR). Chinese hamster ovary (CHO) cells expressing the MOR (CHO-MOR) in the PathHunter® β-Arrestin GPCR assay platform were purchased from DiscoveRx (Freemont, Calif.). Cells were grown in Ham's F12 media supplemented with 1 mM L-glutamine (Thermo Scientific, West Palm Beach, Fla.), 10% fetal bovine serum (Hyclone), 50 U/ml penicillin, 50 μg/ml streptomycin (Life Technologies), G418 and hygromycin B. Cells were grown and frozen as previously described (J. M. Conley, et al., J Vis Exp, e51218 (2014)).
as §1

For the next experiment, the target named is T3, hAC8 (Homo sapiens, UniProt P40145).
T3 construct: expressed in transfected cells
As to the kind of experiment: Cyclic AMP accumulation in HEK cells stably expressing AC8, stimulated with A23187 (HTRF). Conditions: HEK-AC8 cells; for inhibition at 30 µM: HEK293; for IC50: read-out: HEK-AC8 IC50. How it is done:
as §2, §3, §4, §1

T3 sequence (P40145 whole entry): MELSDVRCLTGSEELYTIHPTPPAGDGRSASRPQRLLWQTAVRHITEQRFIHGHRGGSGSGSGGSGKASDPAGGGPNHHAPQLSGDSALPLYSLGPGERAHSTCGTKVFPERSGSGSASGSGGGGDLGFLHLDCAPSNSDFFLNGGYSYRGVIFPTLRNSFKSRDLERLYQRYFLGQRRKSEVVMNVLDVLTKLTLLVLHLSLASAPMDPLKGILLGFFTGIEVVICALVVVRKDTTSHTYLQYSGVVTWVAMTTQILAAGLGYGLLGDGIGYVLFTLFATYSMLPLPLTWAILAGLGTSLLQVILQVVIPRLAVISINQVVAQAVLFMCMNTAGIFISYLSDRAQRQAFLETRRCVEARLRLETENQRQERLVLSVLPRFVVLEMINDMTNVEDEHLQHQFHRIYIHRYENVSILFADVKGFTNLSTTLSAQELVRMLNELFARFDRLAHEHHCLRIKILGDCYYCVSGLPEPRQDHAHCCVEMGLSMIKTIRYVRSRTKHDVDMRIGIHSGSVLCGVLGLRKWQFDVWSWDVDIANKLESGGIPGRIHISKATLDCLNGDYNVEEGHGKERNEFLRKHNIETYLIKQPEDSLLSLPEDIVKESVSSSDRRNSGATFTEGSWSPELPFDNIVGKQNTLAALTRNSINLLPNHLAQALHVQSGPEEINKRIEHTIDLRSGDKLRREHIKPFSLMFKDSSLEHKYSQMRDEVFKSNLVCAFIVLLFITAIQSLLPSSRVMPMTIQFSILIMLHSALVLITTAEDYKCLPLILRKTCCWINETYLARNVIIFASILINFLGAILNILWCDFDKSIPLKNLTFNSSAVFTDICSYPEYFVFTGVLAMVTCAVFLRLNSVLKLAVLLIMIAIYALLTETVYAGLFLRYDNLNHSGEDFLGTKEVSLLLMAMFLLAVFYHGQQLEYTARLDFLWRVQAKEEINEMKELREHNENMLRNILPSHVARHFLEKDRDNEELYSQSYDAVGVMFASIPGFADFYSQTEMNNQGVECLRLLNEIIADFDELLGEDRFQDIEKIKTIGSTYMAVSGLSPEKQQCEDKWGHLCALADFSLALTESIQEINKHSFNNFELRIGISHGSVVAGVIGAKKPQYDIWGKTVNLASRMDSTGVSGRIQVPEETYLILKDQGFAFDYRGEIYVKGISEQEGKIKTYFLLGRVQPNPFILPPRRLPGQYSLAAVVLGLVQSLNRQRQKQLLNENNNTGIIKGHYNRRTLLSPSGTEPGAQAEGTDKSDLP
T2 sequence (Q08828 whole entry): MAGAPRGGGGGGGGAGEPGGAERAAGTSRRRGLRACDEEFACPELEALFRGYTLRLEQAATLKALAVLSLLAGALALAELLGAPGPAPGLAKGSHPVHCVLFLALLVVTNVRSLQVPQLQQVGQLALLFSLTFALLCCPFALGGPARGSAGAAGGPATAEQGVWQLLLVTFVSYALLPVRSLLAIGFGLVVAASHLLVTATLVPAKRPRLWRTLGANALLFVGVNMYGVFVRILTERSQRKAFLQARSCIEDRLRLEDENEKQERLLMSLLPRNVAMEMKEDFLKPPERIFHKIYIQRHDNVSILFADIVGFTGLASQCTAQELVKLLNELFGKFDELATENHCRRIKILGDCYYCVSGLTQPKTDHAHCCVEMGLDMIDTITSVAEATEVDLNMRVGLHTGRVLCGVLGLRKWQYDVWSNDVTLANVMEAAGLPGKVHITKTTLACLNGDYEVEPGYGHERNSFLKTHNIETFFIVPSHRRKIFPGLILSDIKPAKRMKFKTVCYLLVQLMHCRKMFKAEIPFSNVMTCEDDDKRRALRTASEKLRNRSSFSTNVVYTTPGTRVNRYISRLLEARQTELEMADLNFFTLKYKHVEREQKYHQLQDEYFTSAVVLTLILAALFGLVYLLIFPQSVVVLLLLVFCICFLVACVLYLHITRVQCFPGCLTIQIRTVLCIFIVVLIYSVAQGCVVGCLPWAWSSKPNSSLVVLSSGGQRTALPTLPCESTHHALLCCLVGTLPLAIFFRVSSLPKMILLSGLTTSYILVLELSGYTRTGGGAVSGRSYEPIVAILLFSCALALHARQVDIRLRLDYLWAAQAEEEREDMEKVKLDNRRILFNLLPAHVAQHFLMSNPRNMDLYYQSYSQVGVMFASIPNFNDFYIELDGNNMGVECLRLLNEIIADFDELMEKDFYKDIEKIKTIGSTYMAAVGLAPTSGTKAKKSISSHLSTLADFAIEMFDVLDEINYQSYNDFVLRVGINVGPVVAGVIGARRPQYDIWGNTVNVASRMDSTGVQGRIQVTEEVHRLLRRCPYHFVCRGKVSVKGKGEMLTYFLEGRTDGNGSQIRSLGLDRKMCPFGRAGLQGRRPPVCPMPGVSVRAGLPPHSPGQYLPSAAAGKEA
T1 sequence (Q08462 whole entry): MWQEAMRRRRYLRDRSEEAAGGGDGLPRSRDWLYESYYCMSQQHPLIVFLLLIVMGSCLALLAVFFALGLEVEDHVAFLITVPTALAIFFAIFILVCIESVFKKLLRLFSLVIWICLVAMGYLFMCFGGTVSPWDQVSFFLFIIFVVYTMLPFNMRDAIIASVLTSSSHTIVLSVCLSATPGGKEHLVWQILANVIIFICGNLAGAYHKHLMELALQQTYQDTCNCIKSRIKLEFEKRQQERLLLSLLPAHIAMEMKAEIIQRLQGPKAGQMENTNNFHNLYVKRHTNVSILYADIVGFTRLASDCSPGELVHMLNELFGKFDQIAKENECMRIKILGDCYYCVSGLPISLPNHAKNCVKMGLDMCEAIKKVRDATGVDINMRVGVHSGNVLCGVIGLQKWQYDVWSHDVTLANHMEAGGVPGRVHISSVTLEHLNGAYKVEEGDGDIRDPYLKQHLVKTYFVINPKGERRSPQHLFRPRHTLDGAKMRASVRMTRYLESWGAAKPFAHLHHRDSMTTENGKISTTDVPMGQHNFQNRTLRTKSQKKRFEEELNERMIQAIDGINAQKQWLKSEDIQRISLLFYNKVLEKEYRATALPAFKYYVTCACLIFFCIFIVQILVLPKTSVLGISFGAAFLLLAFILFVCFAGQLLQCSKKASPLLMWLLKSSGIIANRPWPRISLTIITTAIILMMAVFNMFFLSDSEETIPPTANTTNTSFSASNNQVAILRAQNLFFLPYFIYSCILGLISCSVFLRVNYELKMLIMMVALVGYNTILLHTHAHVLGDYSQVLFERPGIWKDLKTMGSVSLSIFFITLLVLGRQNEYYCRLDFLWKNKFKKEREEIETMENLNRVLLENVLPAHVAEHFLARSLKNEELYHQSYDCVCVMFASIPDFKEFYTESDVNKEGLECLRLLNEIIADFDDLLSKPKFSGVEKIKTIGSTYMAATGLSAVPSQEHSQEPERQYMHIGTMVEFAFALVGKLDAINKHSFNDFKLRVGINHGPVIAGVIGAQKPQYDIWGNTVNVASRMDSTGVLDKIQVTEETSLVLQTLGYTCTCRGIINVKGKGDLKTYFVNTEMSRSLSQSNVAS

Take `O=C(Nc1nnc(-c2ccc(F)cc2)o1)c1ccccc1F` [AC10060, 2-fluoro-N-(5-(4-fluorophenyl)-1,3,4-oxadiazol-2-yl)benzamide]: the inhibition at 10 µM on hAC2 came out at 3 ± 6%. The inhibition at 30 µM at hAC1 turned out to be 12 ± 4%; at hAC8 it was 13 ± 7%.
For `COc1ccc(C(=O)Nc2nnc(-c3ccc4c(c3)CCCC4)o2)cc1` [AC10041, 4-methoxy-N-(5-(5,6,7,8-tetrahydronaphthalen-2-yl)-1,3,4-oxadiazol-2-yl)benzamide], at hAC1, the inhibition at 30 µM worked out at 94 ± 2% and the concentration for half-maximal inhibition (IC50) worked out at 6.4 ± 1 µM. In addition, on hAC8, the inhibition at 30 µM came to 34 ± 11% and the IC50 was found to be 46 ± 13 µM.
As for `O=C(Nc1nnc(-c2ccc(F)cc2)o1)c1ccc(F)cc1` [AC10052, 4-fluoro-N-(5-(4-fluorophenyl)-1,3,4-oxadiazol-2-yl)benzamide], at hAC1, the inhibition at 30 µM was 64 ± 1% and the half-maximal inhibitory concentration (IC50) was found to be 17 ± 2 µM. Also, on hAC8, the inhibition at 30 µM came to 14 ± 3%.
As for `O=C(Nc1nnc(-c2ccc(F)cc2)o1)c1ccc(-c2ccccc2)cc1` [AC10066, N-(5-(4-fluorophenyl)-1,3,4-oxadiazol-2-yl)-[1,1′-biphenyl]-4-carboxamide], at hAC1, the inhibition at 30 µM stood at 97 ± 1% and the half-inhibitory concentration (IC50) was 2.8 ± 0.6 µM. On hAC8, the inhibition at 30 µM is 90 ± 10% and the IC50 was 7.5 ± 1 µM.
In the same order, the values of `Cc1cc(C(=O)Nc2nnc(C3CCCCC3)o2)cc(C(F)(F)F)c1` [AC10069, N-(5-cyclohexyl-1,3,4-oxadiazol-2-yl)-3-methyl-5-(trifluoromethyl)benzamide] are 96 ± 1%, 9.6 ± 1 µM, 83 ± 7% and 15 ± 2 µM.
In the case of `COc1cccc(C(=O)Nc2nnc(-c3ccc(F)cc3)o2)c1` [AC10034, N-(5-(4-fluorophenyl)-1,3,4-oxadiazol-2-yl)-3-methoxybenzamide], the inhibition at 30 µM at hAC1 is 79 ± 9%; on hAC8, 23 ± 5%. The half-inhibitory concentration (IC50) was found to be 15 ± 4 µM on hAC1 and 101 ± 14 µM on hAC8.
Consider `O=C(Nc1nnc(-c2ccc(F)cc2)o1)c1cccc(F)c1` [AC10046, 3-fluoro-N-(5-(4-fluorophenyl)-1,3,4-oxadiazol-2-yl)benzamide], for which, at hAC1, the inhibition at 30 µM was determined as 81 ± 7% and the IC50 is 10.6 ± 3 µM. Besides, at hAC8, the inhibition at 30 µM came to 35 ± 1% and the half-inhibitory concentration (IC50) was found to be 69 ± 11 µM.
In the case of `O=C(Nc1nnc(C2CCCCC2)o1)c1cccc(F)c1` [AC10047, N-(5-cyclohexyl-1,3,4-oxadiazol-2-yl)-3-fluorobenzamide], at hAC1, the inhibition at 30 µM was 79 ± 8% and the half-maximal inhibitory concentration (IC50) worked out at 10.5 ± 2 µM. Moreover, the inhibition at 30 µM at hAC8 is 11 ± 3%.
On to `O=C(Nc1nnc(-c2ccc(F)cc2)o1)c1ccc(Br)cc1` [AC10008, 4-bromo-N-(5-(4-fluorophenyl)-1,3,4-oxadiazol-2-yl)benzamide], for which the values for the inhibition at 30 µM at hAC1 and on hAC8 were 78 ± 3% and 33 ± 3%, respectively. In addition, the half-inhibitory concentration (IC50) at hAC1 amounted to 10 ± 1 µM; at hAC8 it was 71 ± 18 µM.
Regarding `O=C(Nc1nnc(-c2ccc(F)cc2)o1)c1ccccc1` [AC10004, N-(5-(4-fluorophenyl)-1,3,4-oxadiazol-2-yl)benzamide], at hAC1, the inhibition at 30 µM was found to be 65 ± 8% and the IC50 is 29 ± 10 µM. At hAC8, the inhibition at 30 µM was 8 ± 2%.
Regarding `Cc1ccc(C(=O)Nc2nnc(-c3ccc(F)cc3)o2)cc1C` [AC10030, N-(5-(4-fluorophenyl)-1,3,4-oxadiazol-2-yl)-3,4-dimethylbenzamide], on hAC1, the inhibition at 30 µM stood at 93 ± 4% and the 50% inhibitory concentration (IC50) came out at 6.5 ± 1 µM. Further, at hAC8, the inhibition at 30 µM was 42 ± 4% and the IC50 is 46 ± 7 µM.
With `O=C(Nc1nnc(-c2ccc3c(c2)CCCC3)o1)c1ccc(F)cc1` [AC10056, 4-fluoro-N-(5-(5,6,7,8-tetrahydronaphthalen-2-yl)-1,3,4-oxadiazol-2-yl)benzamide], on hAC1, the inhibition at 30 µM came out at 98 ± 1% and the IC50 is 5.9 ± 1 µM. Further, at hAC8, the inhibition at 30 µM is 74 ± 8% and the concentration for half-maximal inhibition (IC50) is 22 ± 4 µM.
In the same order, the values of `Cc1cc(C(=O)Nc2nnc(-c3ccc4c(c3)CCCC4)o2)cc(C(F)(F)F)c1` [AC10072, 3-methyl-N-(5-(5,6,7,8-tetrahydronaphthalen-2-yl)-1,3,4-oxadiazol-2-yl)-5-(trifluoromethyl)benzamide] are 85 ± 4%, 9.1 ± 3 µM, 78 ± 13% and 2.4 ± 0.02 µM.
On to `COc1cc(C(=O)Nc2nnc(-c3ccc(F)cc3)o2)cc(C(F)(F)F)c1` [AC10068, N-(5-(4-fluorophenyl)-1,3,4-oxadiazol-2-yl)-3-methoxy-5-(trifluoromethyl)benzamide], for which, on hAC1, the inhibition at 30 µM was 97 ± 1% and the IC50 came to 5 ± 1 µM. At hAC8, the inhibition at 30 µM came out at 80 ± 9% and the IC50 was determined as 6 ± 1 µM.
On the same counts, the results for `COc1cccc(C(=O)Nc2nnc(-c3ccc4c(c3)CCCC4)o2)c1` [AC10016, 3-methoxy-N-(5-(5,6,7,8-tetrahydronaphthalen-2-yl)-1,3,4-oxadiazol-2-yl)benzamide] are 99%, 3.1 ± 0.4 µM, 55 ± 3% and 25 ± 4 µM.
In the same order, the values of `O=C(Nc1nnc(-c2ccc3c(c2)CCCC3)o1)c1ccccc1` [AC10002, N-(5-(5,6,7,8-tetrahydronaphthalen-2-yl)-1,3,4-oxadiazol-2-yl)benzamide] are 100 ± 1%, 3.4 ± 1 µM, 80 ± 6% and 19.1 ± 5 µM.
As to `Cc1ccc(C(=O)Nc2nnc(-c3ccc4c(c3)CCCC4)o2)cc1` [AC10033, 4-methyl-N-(5-(5,6,7,8-tetrahydronaphthalen-2-yl)-1,3,4-oxadiazol-2-yl)benzamide], the inhibition at 30 µM was 100 ± 1% on hAC1 and 60 ± 8% at hAC8. In addition, the concentration for half-maximal inhibition (IC50) on hAC1 was 3.4 ± 1 µM; at hAC8 it was 25 ± 6 µM.
In the same order, the values of `COc1cc(C(=O)Nc2nnc(C3CCCCC3)o2)cc(C(F)(F)F)c1` [AC10070, N-(5-cyclohexyl-1,3,4-oxadiazol-2-yl)-3-methoxy-5-(trifluoromethyl)benzamide] are 90 ± 2%, 79 ± 11%, 4.8 ± 1 µM and 9 ± 1 µM.
On the same counts, the results for `COc1cccc(C(=O)Nc2nnc(-c3ccc4c(c3)OCCO4)o2)c1` [AC10038, N-(5-(2,3-dihydrobenzo[b][1,4]dioxin-6-yl)-1,3,4-oxadiazol-2-yl)-3-methoxybenzamide] are 84 ± 5%, 18 ± 10%, 9.6 ± 3 µM and 115 ± 43 µM.
